Measured values taken from US20210122781A1, “STAPLED PEPTIDES” (Agency for Science, Technology and Research, priority 2017, published 2021).
Entries after “also recorded” stand apart in the source; their conditions may differ. Bridge positions count the residues as written; N and C are the ends. Square brackets hold non-standard residues; d marks the D form. Peptide text beside a SMILES is read from it. R8 = C=CCCCCCC[C@@](C)(N)C(=O)O; S5 = C=CCCC[C@](C)(N)C(=O)O; Ahx = NCCCCCC(=O)O

Key:
p53 protein levels = assay: p53 staining of spleens from p53 wild type mice after IP injection of peptide; type: in vivo; conditions: normal p53 wild type mice, 40 mg/kg IP, spleens harvested 5 hours post injection, late- vs early-eluting isomer
Method: FIG. 5. Spleen samples of wildtype-p53 mice harvested 5 hours after intraperitoneal injection with either DMSO (vehicle) or the early or late eluting isomer of stapled peptides VIP82, VIP115 or VIP116. […] A subset of the peptide analogues was subsequently assessed for their ability to stabilise p53 protein levels in proliferating cells. In particular, lysine-containing peptides were chosen due to their enhanced solubility in biological buffers. Normal p53 wild type mice were administered with either vehicle (DMSO) or 40 mg/kg of peptide via IP. Spleens were then harvested 5 hours post injection and histological samples were processed for p53 staining (FIG. 5).

p53 stabilization = assay: p53 IHC staining of spleen and tumour from C57BL/6 mice bearing B16F10 melanoma allograft; type: in vivo; conditions: C57BL/6 mice with B16F10 melanoma allograft, 40 mg/kg intraperitoneal, harvested 6 hours post injection, listed as VIP116 late-eluting isomer
Method: FIG. 6. Photomicrographs of (A) spleen and (B) tumour samples from C57BL/6 mice after treatment with DMSO vehicle or p53-stabilising stapled peptide isomers VIP116 (both early-eluting and late-eluting isomers) and ATSP-7041 (late-eluting isomer only).
The stapled peptides VIP116 (both early-eluting and late-eluting isomers) and ATSP-7041 (late-eluting isomer) were injected into C57BL/6 mice bearing an allograft tumour (B16F10 melanoma cells) via intraperitoneal injection at a dose of 40 mg/kg. The spleen and tumour were both harvested from the mice 6 hours post injection. The p53 stabilization was detected and visualised in harvested tissue samples by p53 IHC staining (FIG. 6). A vehicle (2% DMSO in HBSS buffer) was used as a control.

**Q.** With `CC(=O)N[C@@H](CCCCN)C(=O)NCCCCCC(=O)N[C@H](C(=O)N[C@@H](CO)C(=O)N[C@@H](Cc1ccccc1)C(=O)N[C@]1(C)CCCCCC/C=C/CCC[C@@](C)(C(=O)N[C@@H](CCC(=O)O)C(=O)N[C@@H](CC(N)=O)C(=O)N[C@@H](Cc2ccccc2)C(N)=O)NC(=O)[C@H](CC(C)C)NC(=O)[C@H](CC(C)C)NC(=O)[C@H](C)NC(=O)[C@H](Cc2c[nH]c3ccccc23)NC(=O)[C@H](Cc2ccc(O)cc2)NC(=O)[C@H](CCC(=O)O)NC1=O)[C@@H](C)O` [VIP116-Late] as the molecule, how does the “p53 protein level / expression in spleen (p53 staining)” value (shortened to “p53 protein level / expression”) (p53 protein levels) read?
**A.** as active as the early-isomer

**Q.** And the “p53 activation response (p53 IHC staining) in spleen and tumour” value (p53 stabilization)?
**A.** higher p53 activation response in both spleen and tumour samples; also recorded: more potent than the late-eluting isomer of ATSP-7041

**Q.** What does the source list for `CC(=O)N[C@@H](CCCCN)C(=O)N[C@@H](CCCCN)C(=O)NCCCCCC(=O)N[C@H](C(=O)N[C@@H](CO)C(=O)N[C@@H](Cc1ccccc1)C(=O)N[C@]1(C)CCCCCC/C=C/CCC[C@@](C)(C(=O)N[C@@H](CCC(=O)O)C(=O)N[C@@H](CC(N)=O)C(=O)N[C@@H](Cc2ccccc2)C(N)=O)NC(=O)[C@H](CC(C)C)NC(=O)[C@H](CC(C)C)NC(=O)[C@H](C)NC(=O)[C@H](Cc2c[nH]c3ccccc23)NC(=O)[C@H](Cc2ccc(O)cc2)NC(=O)[C@H](CCC(=O)O)NC1=O)[C@@H](C)O` [VIP82-Late] (Ac-KK[Ahx]TSF[R8]EYWALL[S5]ENF-NH2; staple (E) 7-14)?
**A.** p53 protein level / expression in spleen (p53 staining) (p53 protein levels; listed as VIP82 late eluting isomer, 40 mg/kg): higher in the late eluting isomer; p53 protein level / expression in spleen (p53 staining) (p53 protein levels; listed as VIP82 late-eluting isomer, 40 mg/kg): higher concentration of p53 in mouse tissues compared to the early-eluting isomer

**Q.** Which “p53 protein level / expression” value (p53 protein levels; listed as VIP115 late eluting isomer, 40 mg/kg) does the source give for `CC(=O)N[C@@H](CCCCN)C(=O)N[C@@H](CCCCN)C(=O)N[C@@H](CCCCN)C(=O)NCCCCCC(=O)N[C@H](C(=O)N[C@@H](CO)C(=O)N[C@@H](Cc1ccccc1)C(=O)N[C@]1(C)CCCCCC/C=C/CCC[C@@](C)(C(=O)N[C@@H](CCC(=O)O)C(=O)N[C@@H](CC(N)=O)C(=O)N[C@@H](Cc2ccccc2)C(N)=O)NC(=O)[C@H](CC(C)C)NC(=O)[C@H](CC(C)C)NC(=O)[C@H](C)NC(=O)[C@H](Cc2c[nH]c3ccccc23)NC(=O)[C@H](Cc2ccc(O)cc2)NC(=O)[C@H](CCC(=O)O)NC1=O)[C@@H](C)O` [VIP115-Late] (Ac-KKK[Ahx]TSF[R8]EYWALL[S5]ENF-NH2; staple (E) 8-15) here?
**A.** higher in the late eluting isomer

**Q.** And the “p53 protein level / expression” value (p53 protein levels; listed as VIP115 late-eluting isomer, 40 mg/kg)?
**A.** higher concentration of p53 in mouse tissues compared to the early-eluting isomer
